Test results published in patent US12617779B2, “Self degradation-type CDK9 inhibitor prodrug and liposome encapsulating same” (Sumitomo Pharma Co., Ltd., priority 2021, dated 2026).

What was measured:
[1] = Evaluation of conversion rate to active form in human plasma (Experimental Example 3); assay type: in vitro ADME; conditions: 0.2 μmol/L, 37° C.; for Residual rate (%) of test compound: Human plasma
Outline: (§1)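 LC-MS/MS (positive ESI) followed the parent and released Alvocidib during 37° C incubation of 0.2 μmol/L compound in human or BALB/c mouse plasma, sampled at 0/30/60 or 0/60/120 min. Remaining parent is expressed versus the 0-min peak; conversion versus a 0.2 μmol/L Alvocidib standard.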

[2] = Evaluation of conversion rate to active form in BALB/c mouse plasma (Experimental Example 3); assay type: in vitro ADME; conditions: 0.2 μmol/L, 37° C.; for Residual rate (%) of test compound: Mouse plasma
Outline: as §1

[3] = Pharmacokinetic test, intravenous solution and liposome formulations in mice (Experimental Example 6); assay type: in vivo; conditions: female BALB/c mice
Method: This was used as a solution formulation.
This was used as a liposome formulation.
Hydrogenated soybean phosphatidylcholine (COATSOME NC-21E, manufactured by NOF CORPORATION, 3.238 g), cholesterol (manufactured by Sigma, 1.160 g) and 1,2-disteroyl-rac-glycero-3-methylpolyoxyethylen 2000 (SUNBRIGHT GS-020, manufactured by NOF CORPORATION, 0.983 g) were dissolved in tert-butyl alcohol (300 mL) warmed to 65° C. The solution was placed in an eggplant flask and frozen in a dry ice-acetone bath, and then the tert-butyl alcohol was removed by evaporation under reduced pressure to give a lipid mixture.
To the above lipid mixture was added to a 250 mM ammonium sulfate solution (100 mL), and the mixture was warmed to 65° C., and dispersed by a homogenizer (ULTRA-TURRAX, manufactured by IKA) to give a crude liposome dispersion. […] The solution was filtered through a 0.22 μm membrane filter to adjust the total lipid concentration to 75 mM (75 μmol/mL). […] The solution was adjusted to pH 5 to 6 with 1 mol/L aqueous sodium hydroxide solution, warmed in a 65° C. water bath for 3 minutes, and ice-cooled. The liposome outer solution was replaced with 10 mM tartrate buffer solution/10% sucrose solution (pH 4) using a dialysis cassette (Slide-A-Lyzer G2 Dialysis Cassettes 20K MWCO, manufactured by Thermo Scientific), followed by filtration through a 0.22 μm membrane filter to adjust the concentration.
The solution formulation or liposome formulation was instantly administered intravenously to 7-week-old female BALB/c mice, and the blood was collected over time from the jugular vein without anesthesia up to 24 hours after administration for the solution formulation administration group and up to 72 hours after administration for the liposome formulation administration group. […] The plasma sample was centrifuged, and the concentrations of the test compound and Alvocidib in the obtained supernatant were determined by LC-MS/MS.

Q: Which results are given for `CCCN(C[C@H]1CCCCN1)C(=O)Oc1cc(O)c2c(=O)cc(-c3ccccc3Cl)oc2c1[C@H]1CCN(C)C[C@H]1O` [Example 6, 2-(2-chlorophenyl)-5-hydroxy-8-[(3S,4R)-3-hydroxy-1-methylpiperidin-4-yl]-4-oxo-4H-1-benzopyran-7-yl {[(2R)-piperidin-2-yl]methyl}propylcarbamate]?
A: Residual rate (%) of test compound ([1]; 0 min): 100%; Residual rate (%) of test compound ([1]; 30 min): 3%; Residual rate (%) of test compound ([1]; 60 min): 2%; Conversion to Alvocidib in human plasma ([1]; human plasma, Examples up to 60 minutes, Comparative Examples up to 120 minutes): proceeded rapidly; Conversion to Alvocidib in BALB/c mouse plasma ([2]; BALB/c mouse plasma, Examples up to 60 minutes, Comparative Examples up to 120 minutes): proceeded rapidly; Residual rate (%) of test compound ([2]; 0 min): 100%; Residual rate (%) of test compound ([2]; 30 min): 26%; Residual rate (%) of test compound ([2]; 60 min): 2%; Blood retention of liposome formulation compared with the corresponding solution formulation [3]: higher blood retention
